Results: patent US12318484B2 (priority 2016, dated 2025)

System: IL-1B, IL-8, TLR7 and TLR8 mRNA
Type: cell-based, ferrets
Details: 100 μM, ferret whole blood

## CL075
  IL-1B, IL-8, TLR7 and TLR8 mRNA: significant increases
